Reference: patent US11623929B2, “Spirocyclic compounds” (C4 Therapeutics, Inc., priority 2018, dated 2023)

Target: h-Cereblon_DDB1 (hCereblon(M1-L442)_hDDB1(M1-H1140)) (Homo sapiens (Human), UniProt Q96SW2)
Assay: Fluorescence direct binding (tryptophan fluorescence titration)
Conditions: 20° C., excitation 280 nm, emission 340 nm, assay buffer 50 mM Hepes 7.4 200 mM NaCl, protein 5.0 E−8 M; read-out: Fluorescence h-Cereblon_DDB1 Mean Kd_EQ
Method: Fluorescence Direct Binding Protocol
Determination of the affinities of compounds to protein containing one or more tryptophan is measurable by monitoring the fluorescence emission in direct mode. The measurements depending on the protein available amounts are performed either manually in a cuvette on ISS-PC1 photon counting spectrofluorometer or automatically in well plates on a fluorescence plate reader device. Fluorescence titrations are performed at 20° C. in the chosen binding assay buffer by using a defined constant protein concentration against ligand concentration variations. Small aliquots of known ligand concentration solubilized in DMSO were added and the fluorescence, excited at 280 nm, was recorded at 340 nm. The fluorescence intensity was corrected for protein dilution and for the filter effect (Birdsall, B., et al. (1983). Anal. Biochem. 132, 353-361). The corrected fluorescence intensity was plotted against the ligand concentration and fitted using a four-parameter sigmoidal function, from which the equilibrium dissociation constant Kd was computed using the law of mass action assuming a 1:1 protein-ligand complex (Eftink, Methods Enzymol. 1997; 278:221-57).
The Fluorescence Direct Binding Protocol Process includes:
• 1) Optimization of measurement parameters to minimize protein consumption and to minimize the dilution effect and the DMSO content • 2) Titration measurements of the protein against ligand by at least 12 titration steps to obtain a good s-curve fit • 3) Repeat the same titration measurements with the ligand alone to enable correction • 4) Check the stability of the protein once by titration against DMSO alone • 5) Determination of the molar extinction coefficients of the ligand at 280 and 340 nm with help of an UV-spectrophotometer • 6) Use Excel template for the correction of the measured raw data • 7) Use GraphPad Prism software for the quadratic binding fit and the KD evaluation.

Sequence of h-Cereblon_DDB1 (hCereblon(M1-L442)_hDDB1(M1-H1140)) (Q96SW2 whole entry): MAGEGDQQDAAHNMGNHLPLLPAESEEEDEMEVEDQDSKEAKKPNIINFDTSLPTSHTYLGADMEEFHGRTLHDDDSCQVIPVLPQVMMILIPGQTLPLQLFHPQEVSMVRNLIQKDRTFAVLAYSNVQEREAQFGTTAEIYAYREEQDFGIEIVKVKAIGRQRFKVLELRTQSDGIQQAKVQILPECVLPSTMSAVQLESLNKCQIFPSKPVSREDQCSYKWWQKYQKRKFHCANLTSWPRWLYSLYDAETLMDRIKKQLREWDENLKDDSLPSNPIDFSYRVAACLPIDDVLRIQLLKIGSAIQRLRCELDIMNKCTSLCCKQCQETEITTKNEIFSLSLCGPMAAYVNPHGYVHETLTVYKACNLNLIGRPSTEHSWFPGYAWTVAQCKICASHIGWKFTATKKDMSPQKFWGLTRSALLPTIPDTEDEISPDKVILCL
Sequence of h-Cereblon_DDB1 (hCereblon(M1-L442)_hDDB1(M1-H1140)) (Q16531 whole entry partner): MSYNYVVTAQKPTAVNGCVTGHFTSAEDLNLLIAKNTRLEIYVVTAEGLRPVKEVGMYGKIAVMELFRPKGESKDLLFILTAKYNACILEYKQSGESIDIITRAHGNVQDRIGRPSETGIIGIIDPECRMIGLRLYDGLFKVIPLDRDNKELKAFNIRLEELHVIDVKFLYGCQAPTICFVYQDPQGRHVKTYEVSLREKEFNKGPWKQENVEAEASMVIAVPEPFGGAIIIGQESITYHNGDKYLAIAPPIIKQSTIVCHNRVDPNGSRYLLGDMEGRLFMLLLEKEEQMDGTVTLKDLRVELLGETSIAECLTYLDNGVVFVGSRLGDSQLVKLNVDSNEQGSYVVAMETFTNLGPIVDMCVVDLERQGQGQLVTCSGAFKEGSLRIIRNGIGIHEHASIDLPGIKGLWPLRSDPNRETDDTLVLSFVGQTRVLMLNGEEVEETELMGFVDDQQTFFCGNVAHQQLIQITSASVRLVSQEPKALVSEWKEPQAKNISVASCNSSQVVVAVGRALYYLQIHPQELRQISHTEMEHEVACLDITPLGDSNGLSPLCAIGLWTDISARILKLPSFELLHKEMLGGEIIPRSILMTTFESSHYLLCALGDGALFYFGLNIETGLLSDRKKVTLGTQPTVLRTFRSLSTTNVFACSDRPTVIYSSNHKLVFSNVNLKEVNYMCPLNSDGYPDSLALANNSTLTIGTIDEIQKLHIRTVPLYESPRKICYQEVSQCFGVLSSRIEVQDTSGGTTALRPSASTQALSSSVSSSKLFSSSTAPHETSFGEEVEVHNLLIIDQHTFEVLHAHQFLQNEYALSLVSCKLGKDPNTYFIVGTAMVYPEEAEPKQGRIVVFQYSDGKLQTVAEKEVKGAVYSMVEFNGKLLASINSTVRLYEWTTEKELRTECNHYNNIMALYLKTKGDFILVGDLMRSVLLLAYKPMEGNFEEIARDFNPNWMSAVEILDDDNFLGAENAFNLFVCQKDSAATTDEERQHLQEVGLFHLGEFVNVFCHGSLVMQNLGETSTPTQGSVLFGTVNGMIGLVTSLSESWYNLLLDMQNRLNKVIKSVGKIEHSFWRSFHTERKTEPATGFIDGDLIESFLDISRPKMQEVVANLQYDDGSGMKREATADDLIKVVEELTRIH

| SMILES | Kd [nM] |
| --- | --- |
| O=C1NC(=O)C2(CCN(C(=O)c3ccccc3)C2)N1 (stereo not drawn) [Example 1, 7-Benzoyl-1,3,7-triazaspiro[4.4]nonane-2,4-dione] | 4 |
| O=C1NC(=O)C2(CCN(C(=O)[C@H]3CCCc4ccccc43)C2)N1 (stereo partly drawn) [Example 2, 7-((S)-1,2,3,4-Tetrahydronaphthalene-1-carbonyl)-1,3,7-triazaspiro[4.4]nonane-2,4-dione] | 3 |
| COC(=O)c1ccc(N2CCC3(C2)NC(=O)NC3=O)nc1 (stereo not drawn) [Example 5, Methyl 6-(2,4-dioxo-1,3,7-triazaspiro[4.4]nonan-7-yl)nicotinate] | 2 |
| CC(=O)Nc1ccc(C(=O)N2CCC3(C2)NC(=O)NC3=O)cc1 (stereo not drawn) [Example 7, N-(4-(2,4-Dioxo-1,3,7-triazaspiro[4.4]nonane-7-carbonyl)phenyl)acetamide] | 161 |
| O=C1NC(=O)C2(CCN(c3nc4ccccc4s3)C2)N1 (stereo not drawn) [Example 3, 7-(Benzo[d]thiazol-2-yl)-1,3,7-triazaspiro[4.4]nonane-2,4-dione] | 31 |
| O=C1NC(=O)C2(CCN(C(=O)c3cnn4ccccc34)C2)N1 (stereo not drawn) [Example 4, 7-(Pyrazolo[1,5-a]pyridine-3-carbonyl)-1,3,7-triazaspiro[4.4]nonane-2,4-dione] | 37 |
| CC(=O)Nc1cccc(C(=O)N2CCC3(C2)NC(=O)NC3=O)c1 (stereo not drawn) [Example 6, N-(3-(2,4-Dioxo-1,3,7-triazaspiro[4.4]nonane-7-carbonyl)phenyl)acetamide] | 10 |

Second part, the compound after the results:

| Kd [nM] | SMILES |
| --- | --- |
| 18 | O=C1CC2(CCN(c3nc4ccccc4s3)C2)C(=O)N1 (stereo not drawn) [Example 11, 7-(Benzo[d]thiazol-2-yl)-2,7-diazaspiro[4.4]nonane-1,3-dione] |
| 6 | O=C1CC2(CCN(C(=O)c3cnn4ccccc34)C2)C(=O)N1 (stereo not drawn) [Example 12, 7-(Pyrazolo[1,5-a]pyridine-3-carbonyl)-2,7-diazaspiro[4.4]nonane-1,3-dione] |
| 15 | O=C1CC2(CCN(C(=O)c3ccccc3)C2)C(=O)N1 (stereo not drawn) [Example 13, 7-Benzoyl-2,7-diazaspiro[4.4]nonane-1,3-dione] |
| 10 | COC(=O)c1ccc(N2CCC3(CC(=O)NC3=O)C2)nc1 (stereo not drawn) [Example 10, Methyl 6-(6,8-dioxo-2,7-diazaspiro[4.4]nonan-2-yl)nicotinate] |
| 23 | O=C1NC(=O)C2(CCN(C(=O)c3ccc4scnc4c3)C2)N1 (stereo not drawn) [Example 15, 7-(Benzo[d]thiazole-5-carbonyl)-1,3,7-triazaspiro[4.4]nonane-2,4-dione] |
| 7 | O=C1NC(=O)C2(CCN(c3nc4ncccc4s3)C2)N1 (stereo not drawn) [Example 8, 7-(Thiazolo[4,5-b]pyridin-2-yl)-1,3,7-triazaspiro[4.4]nonane-2,4-dione] |
| 32 | O=C1NC(=O)C2(CCN(C(=O)c3ccc4scnc4c3)C2)N1 (stereo not drawn) [Example 9, 7-(Benzo[d]thiazole-5-carbonyl)-1,3,7-triazaspiro[4.4]nonane-2,4-dione] |
| 26 | O=C1NC(=O)C2(CCN(C(=O)c3ccc4scnc4c3)C2)N1 (stereo not drawn) [Example 14, 7-(Benzo[d]thiazole-5-carbonyl)-1,3,7-triazaspiro[4.4]nonane-2,4-dione] |
